One assay has as its target T1, Wee1 (Homo sapiens, UniProt P30291+Q96SW2).
T1 construct: endogenous in cells; host or cells: human PBMCs (Milecell Biotechnologies)
The assay can be described thus: Western-blot assay, substrate protein in hPBMCs. It is filed as cell-based. The settings on record: hPBMC cells, 24 hours, tested at 50 nM and 500 nM, table does not say which. As for the experimental part:
(§1) The effect of the compounds of the present disclosure on the expression of target proteins in cells was detected using conventional Western blot analysis.
(§2) Human peripheral blood mononuclear cells (hPBMCs) at a density of 1×10^6 cells/mL were thawed according to the PBMC Recovery Protocol (Milecell Biotechnologies Inc, Shanghai).
(§3) After 24 hours of compounds treatment, cells were harvested and lysed in RIPA protein lysate containing phosphatase inhibitors on ice for 30-60 min, followed by centrifugation. The supernatant was aspirated as the extracted total cell protein. The protein concentration of the supernatant was determined using the conventional BCA (Bicinchoninic Acid) assay. The supernatant was then mixed with 4× SDS sample loading buffer, denatured at 95° C. for 5 minutes, and then subjected to SDS-PAGE electrophoresis on a polyacrylamide gel. Proteins were then transferred to a nitrocellulose (NC) membrane, blocked at room temperature for 1-2 h, and processed for antibody incubation and detection according to the manufacturer's instructions (Cell Signaling Technology).
(§4) Half-Maximal Degradation Concentration value (the drug concentration required for degrading proteins by 50%, abbreviated as DC50) reads method: comparing the grayscale values of Western blot bands from drug-treated samples with those from blank DMSO-treated controls, and identifying the drug concentration range at which the grayscale value is half that of the DMSO-treated control bands.
(§5) DC50 values can be calculated using ImageJ software to measure grayscale values of Western blot bands from drug-treated samples. The concentration-response curve is fitted to estimate the drug concentration corresponding to half the grayscale value.
(§6) Target protein remaining (%) refers to the percentage of target protein remaining in hPBMC cells after treatment with protein degrader compounds.
(§7) Calculation method for protein remaining (%): Use ImageJ software to measure grayscale values of Western blot bands from drug (protein degrader)-treated samples. The grayscale value of drug-treated bands is divided by that of internal control protein bands, and the resulting quotient is normalized to obtain the relative percentage of remaining target protein after protein degrader treatment.
(§8) Target protein degradation rate (%)=100%−target protein remaining (%).

The target in the next assay is T2, GSPT1 (Homo sapiens, UniProt P15170+Q96SW2).
T2 construct: endogenous in cells; host or cells: human PBMCs (Milecell Biotechnologies)
The assay can be described thus: Western-blot assay, substrate protein in hPBMCs. It is filed as cell-based. Particulars: hPBMC cells, 24 hours, tested at 50 nM and 500 nM, table does not say which. The protocol:
as §1, §2, §3, §4, §5, §6, §7, §8

The target of another assay is T3, IKZF2 (Homo sapiens, UniProt Q96SW2+Q9UKS7).
T3 construct: endogenous in cells; host or cells: human PBMCs (Milecell Biotechnologies)
The assay can be described thus: Western-blot assay, substrate protein in hPBMCs. It is filed as cell-based. Particulars: hPBMC cells, 24 hours, tested at 50 nM and 500 nM, table does not say which. As for the experimental part:
as §1, §2, §3, §4, §5, §6, §7, §8

Assay [1] concerns the target T4, human Cereblon WT GST-tagged protein (Homo sapiens, UniProt Q96SW2).
T4 construct: purchased CISBIO 64BDCRBNPEH
The assay can be described thus: CRBN-binding affinity, HTRF (CEREBLON BINDING kit). The settings on record: displacement of Thalidomide-Re reagent, 3 hours at room temperature. The procedure, abridged:
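HTRF competition format: compound, GST-tagged wild-type human Cereblon, Thalidomide-Re tracer and GST Eu antibody were combined in PROTAC binding buffer. Binding was derived from emission at 620 nm relative to blank and solvent control wells.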
In general terms: TR-FRET usually uses a lanthanide donor and a delayed reading to cut background.

The next assay deals with T5, CK1α (Homo sapiens, UniProt P48729+Q96SW2).
T5 construct: endogenous in cells; host or cells: human PBMCs (Milecell Biotechnologies)
The assay can be described thus: Western-blot assay, substrate protein in hPBMCs. It is filed as cell-based. Particulars: hPBMC cells, 24 hours, tested at 50 nM and 500 nM, table does not say which. As for the experimental part:
as §1, §2, §3, §4, §5, §6, §7, §8

The next assay has as its target T6, IKZF1 (Homo sapiens, UniProt Q13422+Q96SW2).
T6 construct: endogenous in cells; host or cells: human PBMCs (Milecell Biotechnologies)
The assay can be described thus: Western-blot assay, substrate protein in hPBMCs. The class given is cell-based. Particulars: hPBMC cells, 24 hours, tested at 50 nM and 500 nM, table does not say which. The protocol:
as §1
Human peripheral blood mononuclear cells (hPBMCs) at a density of 1×10^6 cells/mL were thawed according to the PBMC Recovery Protocol (Milecell Biotechnologies Inc, Shanghai). The cells were then treated with the compounds of the present disclosure (including the compounds listed in Tables 1 and 2, and the Examples A1-A20 and 1-116 compounds) at concentrations of 50 nM and 500 nM.
as §3, with “Controls included a negative control (DMSO) and a positive control (the commercial immunomodulatory drug lenalidomide), both processed following the identical experimental protocol as the compounds of the present disclosure. After” for “After”
as §4, §5, §6, §7, §8

What is called IC50 is the concentration needed to halve the response being measured.

Some results are limits rather than exact numbers.

T5 sequence (P48729 whole entry): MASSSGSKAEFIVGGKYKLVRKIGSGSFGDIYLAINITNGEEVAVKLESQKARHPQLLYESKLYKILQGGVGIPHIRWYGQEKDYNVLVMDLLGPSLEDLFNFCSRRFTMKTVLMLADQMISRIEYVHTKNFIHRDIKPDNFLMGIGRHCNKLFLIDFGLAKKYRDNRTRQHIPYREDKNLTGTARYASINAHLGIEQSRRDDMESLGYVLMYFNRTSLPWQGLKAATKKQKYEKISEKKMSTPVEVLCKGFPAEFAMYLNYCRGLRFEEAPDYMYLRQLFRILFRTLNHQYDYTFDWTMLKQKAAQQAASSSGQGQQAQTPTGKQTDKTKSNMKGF
T5 sequence (Q96SW2 whole entry): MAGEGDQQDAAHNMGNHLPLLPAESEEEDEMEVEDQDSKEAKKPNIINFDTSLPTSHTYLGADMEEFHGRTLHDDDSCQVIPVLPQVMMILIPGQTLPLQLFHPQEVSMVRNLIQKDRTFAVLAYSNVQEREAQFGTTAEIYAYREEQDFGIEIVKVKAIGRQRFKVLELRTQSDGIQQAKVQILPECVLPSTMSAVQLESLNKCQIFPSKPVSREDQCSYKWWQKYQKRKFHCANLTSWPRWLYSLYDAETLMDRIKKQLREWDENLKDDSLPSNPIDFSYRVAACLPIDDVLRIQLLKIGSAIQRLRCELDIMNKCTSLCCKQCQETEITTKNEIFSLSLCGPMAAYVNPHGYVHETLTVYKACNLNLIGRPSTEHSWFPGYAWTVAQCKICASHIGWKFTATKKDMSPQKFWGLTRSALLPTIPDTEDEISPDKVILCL
T5 sequence (Q16531 whole entry partner): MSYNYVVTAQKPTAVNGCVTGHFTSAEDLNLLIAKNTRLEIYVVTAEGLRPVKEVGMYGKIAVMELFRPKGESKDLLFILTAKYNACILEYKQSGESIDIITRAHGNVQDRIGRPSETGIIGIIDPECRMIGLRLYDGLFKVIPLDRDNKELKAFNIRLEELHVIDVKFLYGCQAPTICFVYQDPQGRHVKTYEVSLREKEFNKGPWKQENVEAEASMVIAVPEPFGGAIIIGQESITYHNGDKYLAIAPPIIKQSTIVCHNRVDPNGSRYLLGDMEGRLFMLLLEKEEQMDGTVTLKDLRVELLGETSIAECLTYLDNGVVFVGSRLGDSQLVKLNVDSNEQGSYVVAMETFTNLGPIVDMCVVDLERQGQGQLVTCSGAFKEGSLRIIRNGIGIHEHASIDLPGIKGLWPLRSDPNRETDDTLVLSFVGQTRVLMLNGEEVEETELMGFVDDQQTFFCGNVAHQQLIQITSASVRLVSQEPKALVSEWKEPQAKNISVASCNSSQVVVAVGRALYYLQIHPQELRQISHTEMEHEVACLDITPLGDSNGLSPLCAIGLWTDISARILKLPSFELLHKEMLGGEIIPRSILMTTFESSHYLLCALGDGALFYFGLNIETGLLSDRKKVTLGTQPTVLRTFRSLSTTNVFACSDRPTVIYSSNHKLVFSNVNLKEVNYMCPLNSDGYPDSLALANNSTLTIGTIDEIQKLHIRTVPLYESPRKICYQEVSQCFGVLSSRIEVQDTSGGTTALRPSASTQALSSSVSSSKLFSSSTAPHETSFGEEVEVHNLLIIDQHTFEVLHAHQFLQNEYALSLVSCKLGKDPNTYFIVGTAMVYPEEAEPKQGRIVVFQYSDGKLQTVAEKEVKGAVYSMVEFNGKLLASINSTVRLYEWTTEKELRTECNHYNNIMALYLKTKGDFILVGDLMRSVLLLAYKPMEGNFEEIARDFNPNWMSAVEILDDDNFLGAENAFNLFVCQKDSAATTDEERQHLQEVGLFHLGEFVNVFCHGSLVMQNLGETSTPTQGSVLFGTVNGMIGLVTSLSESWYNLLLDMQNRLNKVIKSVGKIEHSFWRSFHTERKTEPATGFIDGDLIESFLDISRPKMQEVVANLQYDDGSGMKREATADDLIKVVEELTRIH
T4 sequence (Q96SW2 whole entry): as the sequence (Q96SW2 whole entry) above
T1 sequence (P30291 whole entry): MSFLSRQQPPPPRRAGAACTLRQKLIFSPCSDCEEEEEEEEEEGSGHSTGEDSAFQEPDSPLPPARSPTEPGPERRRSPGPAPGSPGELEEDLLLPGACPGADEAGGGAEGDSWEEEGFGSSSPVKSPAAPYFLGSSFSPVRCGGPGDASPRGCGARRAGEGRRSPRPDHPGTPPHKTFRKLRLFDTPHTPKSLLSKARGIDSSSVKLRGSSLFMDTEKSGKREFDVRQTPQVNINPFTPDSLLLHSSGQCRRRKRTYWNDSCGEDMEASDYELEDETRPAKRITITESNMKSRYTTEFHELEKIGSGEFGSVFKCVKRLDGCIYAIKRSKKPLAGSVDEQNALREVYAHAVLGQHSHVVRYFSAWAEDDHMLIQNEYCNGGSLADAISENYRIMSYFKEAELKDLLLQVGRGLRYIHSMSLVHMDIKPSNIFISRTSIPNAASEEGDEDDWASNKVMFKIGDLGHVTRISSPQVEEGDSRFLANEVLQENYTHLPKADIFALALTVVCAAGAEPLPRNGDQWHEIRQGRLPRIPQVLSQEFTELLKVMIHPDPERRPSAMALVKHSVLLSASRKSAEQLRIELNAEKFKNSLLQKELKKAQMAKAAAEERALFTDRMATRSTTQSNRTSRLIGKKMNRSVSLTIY
T1 sequence (Q96SW2 whole entry): as the sequence (Q96SW2 whole entry) above
T1 sequence (Q16531 whole entry partner): as the sequence (Q16531 whole entry partner) above
T3 sequence (Q9UKS7 whole entry): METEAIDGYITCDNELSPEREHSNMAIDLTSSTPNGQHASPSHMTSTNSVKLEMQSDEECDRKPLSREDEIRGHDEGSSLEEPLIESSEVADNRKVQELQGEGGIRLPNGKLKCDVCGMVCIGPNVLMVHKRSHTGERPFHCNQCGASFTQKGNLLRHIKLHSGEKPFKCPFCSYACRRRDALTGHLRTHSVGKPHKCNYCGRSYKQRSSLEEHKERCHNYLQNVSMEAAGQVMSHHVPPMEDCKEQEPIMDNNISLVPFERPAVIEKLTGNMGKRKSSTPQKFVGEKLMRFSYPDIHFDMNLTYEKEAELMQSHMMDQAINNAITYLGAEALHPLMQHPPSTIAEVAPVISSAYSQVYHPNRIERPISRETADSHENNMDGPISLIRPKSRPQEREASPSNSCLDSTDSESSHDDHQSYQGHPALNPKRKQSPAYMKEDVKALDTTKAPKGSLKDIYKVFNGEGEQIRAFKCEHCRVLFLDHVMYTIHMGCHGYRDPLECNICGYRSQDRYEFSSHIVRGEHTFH
T3 sequence (Q96SW2 whole entry): as the sequence (Q96SW2 whole entry) above
T3 sequence (Q16531 whole entry partner): as the sequence (Q16531 whole entry partner) above
T2 sequence (P15170 whole entry): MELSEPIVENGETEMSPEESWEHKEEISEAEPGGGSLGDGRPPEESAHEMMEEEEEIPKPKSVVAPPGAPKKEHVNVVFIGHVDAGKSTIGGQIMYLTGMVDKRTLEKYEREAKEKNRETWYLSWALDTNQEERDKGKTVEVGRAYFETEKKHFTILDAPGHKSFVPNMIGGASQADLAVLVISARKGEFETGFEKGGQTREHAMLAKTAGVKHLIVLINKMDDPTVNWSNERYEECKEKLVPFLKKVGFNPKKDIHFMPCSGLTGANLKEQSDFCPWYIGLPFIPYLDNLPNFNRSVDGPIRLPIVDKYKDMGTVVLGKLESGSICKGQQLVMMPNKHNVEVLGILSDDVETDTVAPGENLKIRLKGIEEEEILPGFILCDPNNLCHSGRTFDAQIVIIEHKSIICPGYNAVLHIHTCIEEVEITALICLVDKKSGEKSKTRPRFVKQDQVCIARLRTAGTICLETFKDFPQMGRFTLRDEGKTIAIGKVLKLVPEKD
T2 sequence (Q96SW2 whole entry): as the sequence (Q96SW2 whole entry) above
T2 sequence (Q16531 whole entry partner): as the sequence (Q16531 whole entry partner) above
T6 sequence (Q13422 whole entry): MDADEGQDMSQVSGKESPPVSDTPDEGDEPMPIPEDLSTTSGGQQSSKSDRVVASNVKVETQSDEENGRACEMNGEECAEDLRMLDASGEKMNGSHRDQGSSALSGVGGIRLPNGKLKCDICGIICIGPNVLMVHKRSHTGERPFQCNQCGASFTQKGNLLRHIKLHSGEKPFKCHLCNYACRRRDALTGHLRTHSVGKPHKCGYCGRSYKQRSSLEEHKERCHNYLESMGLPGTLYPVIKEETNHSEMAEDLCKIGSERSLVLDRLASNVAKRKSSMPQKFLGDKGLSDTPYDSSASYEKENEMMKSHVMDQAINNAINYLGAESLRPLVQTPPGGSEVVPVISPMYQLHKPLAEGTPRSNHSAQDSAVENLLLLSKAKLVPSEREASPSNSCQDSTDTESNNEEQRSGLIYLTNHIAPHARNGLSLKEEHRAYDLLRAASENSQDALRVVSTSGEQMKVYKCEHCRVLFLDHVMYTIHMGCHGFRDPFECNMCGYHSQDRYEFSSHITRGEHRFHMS
T6 sequence (Q96SW2 whole entry): as the sequence (Q96SW2 whole entry) above
T6 sequence (Q16531 whole entry partner): as the sequence (Q16531 whole entry partner) above

Consider `O=C1CCC(N2Cc3cc(SC4CN(CC5=C(c6ccc(F)cc6)CCCC5)C4)ccc3C2=O)C(=O)N1` (stereo not drawn) [GT-06301, 3-(5-((1-((4′-fluoro-3,4,5,6-tetrahydro-[1,1′-biphenyl]-2-yl)methyl)azetidin-3-yl)thio)-1-oxoisoindolin-2-yl)piperidine-2,6-dione], for which the “substrate protein remaining %” value at Wee1, at GSPT1 and on IKZF2 was “A (0%≤ substrate protein remaining % ≤80%)” throughout. Also, in assay [1], the IC50 is less than 500 nM.
Consider `CC1(C)CCC(CN2CC3CC(Sc4ccc5c(c4)CN(C4CCC(=O)NC4=O)C5=O)CC3C2)=C(c2ccc(Cl)cc2)C1` (stereo not drawn) [GT-06813, 3-(5-((2-((4′-chloro-5,5-dimethyl-3,4,5,6-tetrahydro-[1,1′-biphenyl]-2-yl)methyl)octahydro-cyclopenta[c]pyrrol-5-yl)thio)-1-oxoisoindolin-2-yl)piperidine-2,6-dione], for which the “substrate protein remaining %” value on Wee1, at GSPT1 and on IKZF2 was “A (0%≤ substrate protein remaining % ≤80%)” throughout. The IC50 in assay [1] fell in the range of 1000 to 1900 nM.
For the compound `CC1(C)CCC(C(=O)N2C[C@H]3CC(Oc4ccc5c(c4)CN(C4CCC(=O)NC4=O)C5=O)C[C@@H]3C2)=C(c2ccc(Cl)cc2)C1` (stereo partly drawn) [GT-07025, 3-(5-(((3aS,6aS)-2-(4′-chloro-5,5-dimethyl-3,4,5,6-tetrahydro-[1,1′-biphenyl]-2-carbonyl)octahydro-cyclopenta[c]pyrrol-5-yl)oxy)-1-oxoisoindolin-2-yl)piperidine-2,6-dione], the “substrate protein remaining %” value at CK1α and at IKZF2 was “A (0%≤ substrate protein remaining % ≤80%)” in each case. This compound also gave an IC50 in assay [1] of less than 500 nM.
Consider `CC1(C)CCC(C(=O)N2CCC(Oc3ccc4c(c3)CN(C3CCC(=O)NC3=O)C4=O)C2)=C(c2ccc(Cl)cc2)C1` (stereo not drawn) [GT-06816, 3-(5-((1-(4′-chloro-5,5-dimethyl-3,4,5,6-tetrahydro-[1,1′-biphenyl]-2-carbonyl)pyrrolidin-3-yl)oxy)-1-oxoisoindolin-2-yl)piperidine-2,6-dione], for which the “substrate protein remaining %” value at Wee1, at CK1α, at GSPT1 and at IKZF2 was “A (0%≤ substrate protein remaining % ≤80%)” in each case. In addition, the IC50 in assay [1] is less than 500 nM.
For `O=C1CCC(N2Cc3cc(SC4CN(Cc5cccc(-c6ccc(Cl)cc6)c5)C4)ccc3C2=O)C(=O)N1` (stereo not drawn) [GT-06225, 3-(5-((1-((4′-chloro-[1,1′-biphenyl]-3-yl)methyl)azetidin-3-yl)thio)-1-oxoisoindolin-2-yl)piperidine-2,6-dione], the “substrate protein remaining %” value at GSPT1 and on IKZF1 was “A (0%≤ substrate protein remaining % ≤80%)” throughout. Besides, in assay [1], the IC50 is less than 500 nM.
Consider `O=C1CCC(N2Cc3cc(OC4CN(C(c5ccccc5)c5ccccn5)C4)ccc3C2=O)C(=O)N1` (stereo not drawn) [GT-06559, 3-(1-oxo-5-((1-(phenyl(pyridin-2-yl)methyl)azetidin-3-yl)oxy)isoindolin-2-yl)piperidine-2,6-dione], for which the “substrate protein remaining %” value at Wee1, at CK1α, at GSPT1 and at IKZF2 was “A (0%≤ substrate protein remaining % ≤80%)” in each case. The IC50 in assay [1] is less than 500 nM.
Take `O=C1CCC(N2Cc3cc(SC4C[C@@H]5CN(C(=O)c6ccccc6-c6ccc(Cl)cc6)C[C@@H]5C4)ccc3C2=O)C(=O)N1` (stereo partly drawn) [GT-07024, 3-(5-(((3aR,6aS)-2-(4′-chloro-[1,1′-biphenyl]-2-carbonyl)octahydro-cyclopenta[c]pyrrol-5-yl)thio)-1-oxoisoindolin-2-yl)piperidine-2,6-dione]: the “substrate protein remaining %” value on Wee1 and at IKZF2 was “A (0%≤ substrate protein remaining % ≤80%)” each time. In addition, the IC50 in assay [1] is less than 500 nM.
For `O=C1CCC(N2Cc3cc(SC4CC5CN(Cc6ccccc6-c6ccc(Cl)cc6)CC5C4)ccc3C2=O)C(=O)N1` (stereo not drawn) [GT-06914, 3-(5-((2-((4′-chloro-[1,1′-biphenyl]-2-yl)methyl)octahydrocyclopenta[c]pyrrol-5-yl)thio)-1-oxoisoindolin-2-yl)piperidine-2,6-dione], the “substrate protein remaining %” value on Wee1 and at IKZF2 was “A (0%≤ substrate protein remaining % ≤80%)” in each case. This compound also gave an IC50 in assay [1] of 1000 to 1900 nM.
Turning to `O=C1CCC(N2Cc3cc(SC4CN(C(c5ccccc5)c5ccccn5)C4)ccc3C2=O)C(=O)N1` (stereo not drawn) [GT-06518, 3-(1-oxo-5-((1-(phenyl(pyridin-2-yl)methyl)azetidin-3-yl)thio)isoindolin-2-yl)piperidine-2,6-dione], the “substrate protein remaining %” value on CK1α, on GSPT1 and on IKZF2 was “A (0%≤ substrate protein remaining % ≤80%)” each time. The compound also yielded an IC50 in assay [1] of less than 500 nM.
With `O=C1CCC(N2Cc3cc(OC4CCN(Cc5ccccc5-c5ccc(Cl)cc5)CC4)ccc3C2=O)C(=O)N1` (stereo not drawn) [GT-06193, 3-(5-((1-((4′-chloro-[1,1′-biphenyl]-2-yl)methyl)piperidin-4-yl)oxy)-1-oxoisoindolin-2-yl)piperidine-2,6-dione], the “substrate protein remaining %” value at Wee1, on GSPT1 and at IKZF2 was “A (0%≤ substrate protein remaining % ≤80%)” throughout. In addition, in assay [1], the IC50 lay in the range of 1000 to 1900 nM.
`CC1(C)CC(c2ccc(Cl)cc2)=C(CN2CC(Oc3ccc4c(c3)CN(C3CCC(=O)NC3=O)C4=O)C2)CO1` (stereo not drawn) [GT-06561, 3-(5-((1-((4-(4-chlorophenyl)-6,6-dimethyl-5,6-dihydro-2H-pyran-3-yl)methyl)azetidin-3-yl)oxy)-1-oxoisoindolin-2-yl)piperidine-2,6-dione]: the “substrate protein remaining %” value on Wee1 and on IKZF2 was “A (0%≤ substrate protein remaining % ≤80%)” throughout. In addition, in assay [1], the IC50 is less than 500 nM.
`O=C1CCC(N2Cc3cc(SC4CCN(C(c5ccccc5)c5ccccc5)C4)ccc3C2=O)C(=O)N1` (stereo not drawn) [GT-06196, 3-(5-((1-benzhydrylpyrrolidin-3-yl)thio)-1-oxoisoindolin-2-yl)piperidine-2,6-dione]: the “substrate protein remaining %” value on CK1α, at GSPT1 and at IKZF2 was “A (0%≤ substrate protein remaining % ≤80%)” each time. This compound also yielded an IC50 in assay [1] of 500 to 1000 nM.
